Measurements published in publication PMC3904663 (Nature, 2013).

Biological target: Drosophila melanogaster dopamine transporter (dDATcryst) (Drosophila melanogaster, UniProt Q7K4Y6, V74A/DEL164-206/V275A/V311A/L415A/G538L)
Type: binding

CNCCC(Oc1ccccc1OC)c1ccccc1 (stereo not shown) [nisoxetine]
Kd: 29 nM
